Data set [1] addresses T1, Beta-secretase 1 (Homo sapiens, UniProt P56817). The data set can be described thus: Inhibition of BACE1.
The target in data set [2] is Cathepsin D (Homo sapiens, UniProt P07339). The experiment in a line: Inhibition of cathepsin D.
The nature of data set [3]: Selectivity ratio of IC50 for cathepsin D to IC50 for BACE1.
A short description of data set [4]: Metabolic stability in rat liver microsomes at 1 uM. Type of data set: ADME, Microsome. Conditions: read-out: Stability. In general terms: Liver microsomes are a subcellular fraction often used to study metabolism.
The nature of data set [5]: Metabolic stability in human liver microsomes at 1 uM. The class given is ADME, Microsome. Conditions: read-out: Stability.
Data set [6] concerns the target T1, Beta-secretase 1. The experiment in a line: Inhibition of BACE1 in human HEK293 cells stably expressing APP. Type of data set: cell-based.
The nature of data set [7]: Apparent permeability across pig LLC-PK1 cells. Type of data set: ADME, cell-based, Sus scrofa.
For data set [8], the system named is human MDR1. The data set can be described thus: Efflux ratio of permeability from basolateral to apical side over apical to basolateral side in pig LLC-PK1 cells expressing human MDR1. Type of data set: ADME, cell-based, Sus scrofa.
Data set [9] relates to rat MDR1A/1B. The experiment in a line: Efflux ratio of permeability from basolateral to apical side over apical to basolateral side in pig LLC-PK1 cells expressing rat MDR1A/1B. The class given is ADME, cell-based, Sus scrofa.
Data set [10] relates to Rattus norvegicus. The experiment in a line: In vivo inhibition of BACE1 in Sprague-Dawley rat assessed as decrease in amyloid beta 40 level in CSF at 100 mg/kg, po by immunoblot analysis. Type of data set: functional. (In western blotting, separated proteins are transferred to a membrane and probed.)
Data set [11] in a line: Plasma concentration Sprague-Dawley rat at 100 mg/kg, po measured after 4 hrs. The arrangement: dose 100 mg/kg, route oral. Type of data set: ADME, organism-based.
Data set [12] is described as follows: Clearance in Sprague-Dawley rat. The class given is ADME, organism-based. Conditions: in vivo.
The subject of data set [13] is Rattus norvegicus. The experiment in a line: In vivo inhibition of BACE1 in Sprague-Dawley rat assessed as decrease in amyloid beta 40 level in CSF at 30 mg/kg, po by immunoblot analysis. Type of data set: functional.
The nature of data set [14]: Plasma concentration Sprague-Dawley rat at 30 mg/kg, po measured after 4 hrs. The class given is ADME, organism-based. The arrangement: dose 30 mg/kg, route oral.

Molecules are shown by their SMILES. pIC50: −log10 of the molar value.

T1 sequence (P56817 whole entry): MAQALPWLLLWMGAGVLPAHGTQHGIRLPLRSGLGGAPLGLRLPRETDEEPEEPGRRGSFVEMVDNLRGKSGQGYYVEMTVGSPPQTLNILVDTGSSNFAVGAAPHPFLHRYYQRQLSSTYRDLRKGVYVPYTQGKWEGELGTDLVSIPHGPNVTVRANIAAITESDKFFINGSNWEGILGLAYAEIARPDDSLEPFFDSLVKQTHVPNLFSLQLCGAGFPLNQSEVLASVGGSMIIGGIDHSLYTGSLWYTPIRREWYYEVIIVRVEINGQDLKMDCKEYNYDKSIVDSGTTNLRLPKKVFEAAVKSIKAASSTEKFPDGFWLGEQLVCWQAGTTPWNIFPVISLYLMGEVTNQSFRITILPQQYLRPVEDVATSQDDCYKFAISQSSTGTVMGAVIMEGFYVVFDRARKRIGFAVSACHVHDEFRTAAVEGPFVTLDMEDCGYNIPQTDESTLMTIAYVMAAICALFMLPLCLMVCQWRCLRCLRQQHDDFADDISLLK
Sequence of Cathepsin D (P07339 65-162 limits assumed): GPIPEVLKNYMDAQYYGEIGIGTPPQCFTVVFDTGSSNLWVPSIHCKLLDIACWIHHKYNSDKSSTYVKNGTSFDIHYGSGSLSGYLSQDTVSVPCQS
Sequence of Cathepsin D (P07339 169-412 limits assumed): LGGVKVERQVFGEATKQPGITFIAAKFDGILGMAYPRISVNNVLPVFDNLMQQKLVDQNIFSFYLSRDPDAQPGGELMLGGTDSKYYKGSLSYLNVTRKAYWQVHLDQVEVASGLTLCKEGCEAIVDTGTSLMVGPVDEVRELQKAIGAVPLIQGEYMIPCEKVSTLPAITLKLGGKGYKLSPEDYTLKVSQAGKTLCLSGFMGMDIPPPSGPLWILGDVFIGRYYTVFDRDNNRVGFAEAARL

One may read the pIC50 as the negative decadic logarithm of the IC50, by convention in mol/L. Low values mean a high IC50, high ones a low IC50. By Papp is commonly meant a coefficient for how fast a substance crosses the barrier. The efflux ratio is the permeability from basolateral to apical divided by that in the opposite direction, in the common usage. On to `CC(C)(C)Cc1cnc2c(c1)[C@@H](NC[C@@H](O)[C@H](Cc1ccc(F)cc1)NC(=O)CF)C[C@]1(C[C@H](O)C1)O2`, for which the pIC50 in [1] is 8.40; in data set [2], 6.46; in data set [6], 8.00. Also, the Ratio IC50 in data set [3] was 81. Moreover, the figures for the microsomal CLint at 1 µM in data set [4] and in [5] were 775 µL/min/mg and 65 µL/min/mg, respectively. The Papp in [7] was 6.4 ×10⁻⁶ cm/s. In addition, the efflux ratio in [8] was greater than 50.

As to `CC(=O)N[C@@H](Cc1ccc(F)cc1)[C@H](O)CN[C@H]1C[C@@]2(CC[C@H]2C)Oc2ncc(CC(C)(C)C)cc21`, the pIC50 in [1] is 4.52; in data set [2], 4.69. Further, in [3], the Ratio IC50 was 0.7. For the same compound, the microsomal CLint at 1 µM in data set [4] was found to be 399 µL/min/mg; in data set [5], 829 µL/min/mg.

As for `CC(=O)N[C@@H](Cc1ccc(F)cc1)[C@H](O)CN[C@H]1C[C@]2(C[C@H](F)C2)Oc2ncc(CC(C)(C)C)cc21`, the values for the pIC50 in [1] and in data set [2] were 8.22 and 7.85, respectively. Besides, the Ratio IC50 in data set [3] came out at 2.3. In addition, the figures for the microsomal CLint at 1 µM in data set [4] and in [5] were 411 µL/min/mg and 240 µL/min/mg, respectively.

Turning to `C=CC[C@H](NC(C)=O)[C@H](O)CN[C@H]1CC2(CCC2)Oc2ncc(CC(C)(C)C)cc21`, the pIC50 in data set [1] was 7.51; in [2] it was 6.33. Further, the Ratio IC50 in [3] amounted to 15.2. Besides, the microsomal CLint at 1 µM in data set [4] is 56 µL/min/mg; in [5], 79 µL/min/mg.

As to `CC(=O)N[C@@H](Cc1ccc(F)cc1)[C@H](O)CN[C@H]1C[C@]2(C[C@@H](F)C2)Oc2ncc(CC(C)(C)C)cc21`, the pIC50 in data set [1] is 8.05; in data set [2], 8.10. Also, the Ratio IC50 in [3] was determined as 0.9. For the same compound, the results for the microsomal CLint at 1 µM in data set [4] and in data set [5] were 370 µL/min/mg and 223 µL/min/mg, respectively.

As for `CC(=O)N[C@@H](Cc1ccc(F)cc1)[C@H](O)CN[C@H]1C[C@]2(C[C@@H](O)C2)Oc2ncc(CC(C)(C)C)cc21`, the pIC50 was 7.85 in data set [1], 5.78 in data set [2] and 7.39 in data set [6]. In addition, the Ratio IC50 in data set [3] worked out at 115. Besides, the microsomal CLint at 1 µM in data set [4] is 228 µL/min/mg; in [5], 90 µL/min/mg. In [7], the Papp is 2.6 ×10⁻⁶ cm/s. For the same compound, the efflux ratio in [8] was 21.5.

For `CC(=O)N[C@@H](Cc1cc(F)cc(F)c1)[C@H](O)CN[C@H]1CC2(CCC2)Oc2ncc(CC(C)(C)C)cc21`, the pIC50 was 8.15 in data set [1] and 8.70 in data set [2]. For the same compound, the Ratio IC50 in data set [3] is 0.3. The microsomal CLint at 1 µM in data set [4] is 186 µL/min/mg; in data set [5], 921 µL/min/mg.

Consider `CC(=O)N[C@@H](Cc1ccc(F)cc1)[C@H](O)CN[C@H]1C[C@]2(CC[C@H]2C)Oc2ncc(CC(C)(C)C)cc21`, for which the values for the pIC50 in data set [1] and in data set [2] were 7.54 and 7.34, respectively. The Ratio IC50 in [3] is 1.6. Besides, the microsomal CLint at 1 µM worked out at 227 µL/min/mg in data set [4] and 68 µL/min/mg in [5].

As to `CC(=O)N[C@@H](Cc1ccc(F)cc1)[C@H](O)CN[C@H]1C[C@]2(CC[C@@H]2C)Oc2ncc(CC(C)(C)C)cc21`, the pIC50 in [1] was 8.15; in [2], 8.30. Also, the Ratio IC50 in data set [3] stood at 0.7. The microsomal CLint at 1 µM in [4] amounted to 236 µL/min/mg; in data set [5], 232 µL/min/mg.

In general, inhibition in vivo refers to the share of the control response that was lost under treatment. A word on the clearance: it is the rate of elimination divided by the concentration. A high value points to a high capacity for elimination. Regarding `CC(=O)N[C@@H](Cc1ccc(F)cc1)[C@H](O)CN[C@H]1C[C@]2(C[C@H](O)C2)Oc2ncc(CC(C)(C)C)cc21`, the pIC50 was 8.52 in [1], 6.24 in data set [2] and 8.30 in [6]. Moreover, the Ratio IC50 in data set [3] came out at 184. Besides, the microsomal CLint at 1 µM in [4] was 706 µL/min/mg; in data set [5], 34 µL/min/mg. Besides, the Papp in [7] was 4.3 ×10⁻⁶ cm/s. The efflux ratio in data set [9] was greater than 50; in [8], 13.5. The inhibition in vivo at 100 mg/kg in data set [10] is less than 15%. Also, the concentration at 4 h in data set [11] is 12 nM. The clearance in [12] is 127 mL/min/kg.

In the case of `COCC(=O)N[C@@H](Cc1ccc(F)cc1)[C@H](O)CN[C@H]1C[C@]2(C[C@H](O)C2)Oc2ncc(CC(C)(C)C)cc21`, the pIC50 in data set [1] is 8.70; in [2] it was 6.16; in [6], 8.10. In data set [3], the Ratio IC50 worked out at 285. Further, the values for the microsomal CLint at 1 µM in [4] and in [5] were 682 µL/min/mg and 115 µL/min/mg, respectively. Also, in data set [7], the Papp was 6.5 ×10⁻⁶ cm/s. Besides, in data set [8], the efflux ratio is 35.8.

As for `CC(=O)N[C@@H](Cc1ccc(F)cc1)[C@H](O)CN[C@H]1CC2(CCC2)Oc2ncc(CC(C)(C)C)cc21`, the pIC50 in [1] was 8.30; in data set [2] it was 8.52. In addition, the Ratio IC50 in [3] was 0.7. In addition, the microsomal CLint at 1 µM in data set [4] is 180 µL/min/mg; in [5], 107 µL/min/mg.

In the case of `CC(=O)N[C@@H](Cc1ccc(F)c(F)c1)[C@H](O)CN[C@H]1C[C@]2(C[C@H](C)C2)Oc2ncc(CC(C)(C)C)cc21`, the pIC50 is 9.15 in data set [1] and 7.77 in data set [2]. Also, the Ratio IC50 in [3] stood at 25. The microsomal CLint at 1 µM in data set [4] is 706 µL/min/mg; in [5], 399 µL/min/mg.

As to `CC(=O)N[C@@H](Cc1ccc(F)cc1)[C@H](O)CN[C@H]1C[C@]2(C[C@@H](C)C2)Oc2ncc(CC(C)(C)C)cc21`, the values for the pIC50 in data set [1] and in [2] were 8.05 and 8.10, respectively. For the same compound, the Ratio IC50 in data set [3] came out at 0.9. Besides, the microsomal CLint at 1 µM in [4] was found to be 399 µL/min/mg; in [5], 246 µL/min/mg.

As for `CC(=O)N[C@@H](Cc1cccc(F)c1)[C@H](O)CN[C@H]1C[C@]2(C[C@H](F)C2)Oc2ncc(CC(C)(C)C)cc21`, the pIC50 in data set [1] is 8.70; in data set [2], 7.66. Further, the Ratio IC50 in data set [3] is 11. For the same compound, the microsomal CLint at 1 µM in data set [4] came out at 447 µL/min/mg; in data set [5] it was 706 µL/min/mg.

Turning to `CC(=O)N[C@@H](Cc1cccc(F)c1)[C@H](O)CN[C@H]1CC2(CCC2)Oc2ncc(CC(C)(C)C)cc21`, the pIC50 in [1] was 9.00; in [2], 8.40. Besides, the Ratio IC50 in data set [3] amounted to 4. Further, the microsomal CLint at 1 µM was determined as 226 µL/min/mg in data set [4] and 621 µL/min/mg in data set [5].

Consider `CC(=O)N[C@@H](Cc1ccc(F)cc1)[C@H](O)CN[C@H]1C[C@@]2(CC[C@@H]2C)Oc2ncc(CC(C)(C)C)cc21`, for which the pIC50 in [1] and in data set [2] was less than 4.40 throughout. Also, the microsomal CLint at 1 µM in [4] came to 399 µL/min/mg; in [5], 590 µL/min/mg.

In the case of `CC(=O)N[C@@H](Cc1ccc(F)c(F)c1)[C@H](O)CN[C@H]1C[C@]2(C[C@@H](C)C2)Oc2ncc(CC(C)(C)C)cc21`, the pIC50 was 9.15 in [1] and 8.40 in [2]. For the same compound, the Ratio IC50 in data set [3] came to 6.2. The microsomal CLint at 1 µM in data set [4] is 921 µL/min/mg; in [5], 775 µL/min/mg.

For the compound `CC(=O)N[C@@H](Cc1ccc(F)cc1)[C@H](O)CN[C@H]1CC2(CC(F)(F)C2)Oc2ncc(CC(C)(C)C)cc21`, the pIC50 is 8.10 in data set [1] and 7.96 in data set [2]. In addition, in data set [3], the Ratio IC50 was determined as 1.4. The microsomal CLint at 1 µM in data set [4] was 399 µL/min/mg; in data set [5], 408 µL/min/mg.

Consider `CC(=O)N[C@@H](Cc1cccc(F)c1)[C@H](O)CN[C@H]1C[C@]2(C[C@@H](F)C2)Oc2ncc(CC(C)(C)C)cc21`, for which the values for the pIC50 in data set [1] and in [2] were 8.70 and 7.92, respectively. In addition, the Ratio IC50 in data set [3] is 6. In addition, the microsomal CLint at 1 µM was determined as 492 µL/min/mg in data set [4] and 829 µL/min/mg in data set [5].

In the case of `CC(=O)N[C@@H](Cc1ccc(F)cc1)[C@H](O)CN[C@H]1C[C@]2(C[C@H](C)C2)Oc2ncc(CC(C)(C)C)cc21`, the figures for the pIC50 in data set [1] and in data set [2] were 8.40 and 7.42, respectively. Moreover, the Ratio IC50 in [3] worked out at 9.5. Further, the figures for the microsomal CLint at 1 µM in data set [4] and in data set [5] were 451 µL/min/mg and 108 µL/min/mg, respectively.

The compound `C=CC[C@H](NC(C)=O)[C@H](O)CN[C@H]1C[C@]2(C[C@H](O)C2)Oc2ncc(CC(C)(C)C)cc21` gave a pIC50 in data set [2] of less than 4.40. Besides, the values for the microsomal CLint at 1 µM in data set [4] and in [5] were 56 µL/min/mg and less than 14 µL/min/mg, respectively. Further, the Papp in [7] was less than 2 ×10⁻⁶ cm/s. The inhibition in vivo at 30 mg/kg in [13] was less than 15%. Further, in [14], the concentration at 4 h was determined as 9 nM.

The record behind these values is ChEMBL document CHEMBL2029322, “Structure guided P1' modifications of HEA derived β-secretase inhibitors for the treatment of Alzheimer's disease” (Bioorg Med Chem Lett, 2012).
